# Laboratory results as given in patent US10329295B2, “Pyrrolotriazine inhibitors of IRAK4 activity” (MERCK SHARP & DOHME CORP., priority 2015, dated 2019).
# Structures can show the parent of a compound that is named as a salt.
# Target: GST tagged IRAK4 (Homo sapiens (Human), UniProt Q9NWZ3)
# Assay: IRAK4 Kinase Assay (IMAP fluorescence polarization)
# Format: biochemical
# Details: 0.5 nM GST tagged IRAK4, 100 μM ATP, 30 minutes at 25° C.
# Procedure: The kinase activity of IRAK4 is determined by its ability to catalyze the phosphorylation of a fluorescent polypeptide substrate. The extent of phosphorylation is measured using the IMAP technology (Molecular Devices) where the phosphorylated fluorescent substrate binds to the large M(III)-based nanoparticles which reduces the rotational speed of the substrate and thus increases its fluorescent polarization (FP).
# 20 μL reaction mixture contains 10 mM TriHCl, pH 7.2, 0.5 nM GST tagged IRAK4 (SignalChem), 100 nM fluorescent peptide substrate (RP7030, Molecular Devices), 100 μM ATP, 1 mM DDT, 1 mM MgCl2, and 0.01% Tween 20. The reaction is initiated by the addition of ATP. After incubation for 30 minutes at 25° C., 60 μL of Progressive IMAP Reagent (Molecular Devices) is added to stop the reaction. Change in RP7030's FP is determined by a FP reader (Analyst HT, LJL BioSystems).
# Chain of GST tagged IRAK4 (Q9NWZ3 whole entry): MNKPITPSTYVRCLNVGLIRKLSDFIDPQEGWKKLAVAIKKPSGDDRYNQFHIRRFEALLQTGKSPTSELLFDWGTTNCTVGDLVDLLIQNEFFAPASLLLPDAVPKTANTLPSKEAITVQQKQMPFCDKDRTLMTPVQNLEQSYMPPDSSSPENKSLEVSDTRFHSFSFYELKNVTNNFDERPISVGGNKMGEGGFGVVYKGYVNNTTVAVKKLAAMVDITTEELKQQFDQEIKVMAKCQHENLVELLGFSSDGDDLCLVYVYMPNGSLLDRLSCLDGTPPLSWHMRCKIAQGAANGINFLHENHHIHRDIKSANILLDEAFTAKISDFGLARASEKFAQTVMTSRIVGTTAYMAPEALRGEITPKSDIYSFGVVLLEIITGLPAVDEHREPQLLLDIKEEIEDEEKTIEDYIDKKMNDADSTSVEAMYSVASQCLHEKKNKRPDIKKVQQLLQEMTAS
row,IC50 [nM],SMILES
1,655,"Cn1cc(NC(=O)c2ccc3cnc(N[C@@H]4CCC(F)(F)C[C@@H]4N)nn23)c(C(F)(F)F)n1 (single isomer, unassigned) [Example 132, 2-{[(1S,2R)- or (1R,2S)-2-amino-4,4-difluorocyclohexyl]amino}-N-[1-methyl-3-(trifluoromethyl)-1H-pyrazol-4-yl]pyrrolo[2,1-f][1,2,4]triazine-7-carboxamide trifluoroacetate]"
2,1,"Cn1cc(NC(=O)c2ccc3cnc(N[C@H]4CNC[C@H](F)C4)nn23)c(C(F)F)n1 [Example 165, N-[3-(difluoromethyl)-1-methyl-1H-pyrazol-4-yl]-2-{[(3R,5R)-5-fluoropiperidin-3-yl]amino}pyrrolo[2,1-f][1,2,4]triazine-7-carboxamide trifluoroacetate]"
3,15,"Cn1cc(NC(=O)c2ccc3cnc(N4C[C@H]5CNC[C@@H]4C5)nn23)c(C(F)F)n1 (single isomer, unassigned) [Example 120, 2-[(1S,5R)- or (1R,5S)-3,6-diazabicyclo[3.2.1]oct-6-yl]-N-[3-(difluoromethyl)-1-methyl-1H-pyrazol-4-yl]pyrrolo[2,1-f][1,2,4]triazine-7-carboxamide]"
4,218,"O=C(Nc1ccccc1C(F)(F)F)c1ccc2cnc(N3C[C@H]4CC[C@@H]3CN4)nn12 (single isomer, unassigned) [Example 68, 2-[(1S,4S)- or (1R,4R)-2,5-diazabicyclo[2.2.2]oct-2-yl]-N-[2-(trifluoromethyl)phenyl]-pyrrolo[2,1-f][1,2,4]triazine-7-carboxamide trifluoroacetate]"
5,7,"Cn1cc(NC(=O)c2ccc3cnc(N4CC5CCC4CN5)nn23)c(C(F)F)n1 (stereo not drawn) [Example 29, 2-(2,5-diazabicyclo[2.2.2]oct-2-yl)-N-[3-(difluoromethyl)-1-methyl-1H-pyrazol-4-yl]pyrrolo[2,1-f][1,2,4]triazine-7-carboxamide trifluoroacetate]"
6,970,"N#Cc1ccccc1NC(=O)c1ccc2cnc(N3CCNCC4(CC4)C3)nn12 [Example 76, N-(2-cyanophenyl)-2-(5,8-diazaspiro[2.6]non-5-yl)pyrrolo[2,1-f][1,2,4]triazine-7-carboxamide trifluoroacetate]"
7,1450,"O=C(Nc1ccccc1C(F)(F)F)c1ccc2cnc(N3C[C@@H]4CC[C@H]3CN4)nn12 (single isomer, unassigned) [Example 78, 2-[(1S,4S)- or (1R,4R)-2,5-diazabicyclo[2.2.2]oct-2-yl]-N-[2-(trifluoromethyl)phenyl]-pyrrolo[2,1-f][1,2,4]triazine-7-carboxamide trifluoroacetate]"
8,2270,"O=C(Nc1ccsc1C(F)(F)F)c1ccc2cnc(N3C[C@@H]4CC[C@H]3CN4)nn12 (single isomer, unassigned) [Example 86, 2-[(1S,4S)- or (1R,4R)-2,5-diazabicyclo[2.2.2]oct-2-yl]-N-[2-(trifluoromethyl)thiophen-3-yl]pyrrolo[2,1-f][1,2,4]triazine-7-carboxamide trifluoroacetate]"
9,1650,"O=C(Nc1ccsc1Br)c1ccc2cnc(N3C[C@@H]4CC[C@H]3CN4)nn12 (single isomer, unassigned) [Example 48, N-(2-bromothiophen-3-yl)-2-[(1S,4S)- or (1R,4R)-2,5-diazabicyclo[2.2.2]oct-2-yl]pyrrolo[2,1-f][1,2,4]triazine-7-carboxamide trifluoroacetate]"
10,6560,"O=C(Nc1ccccc1C(F)F)c1ccc2cnc(N3CCCNCC3)nn12 [Example 57, 2-(1,4-diazepan-1-yl)-N-[2-(difluoromethyl)phenyl]-pyrrolo[2,1-f][1,2,4]triazine-7-carboxamide trifluoroacetate]"
11,38,"CCn1cc(NC(=O)c2ccc3cnc(N[C@@H]4CCCC[C@@H]4N)nn23)cn1 [Example 166, 2-{[(1R,2S)-2-Aminocyclohexyl]amino}-N-(1-ethyl-1H-pyrazol-4-yl)pyrrolo[2,1-f][1,2,4]triazine-7-carboxamide]"
12,4820,"O=C(Nc1cscc1Cl)c1ccc2cnc(N3CCCNCC3)nn12 [Example 105, N-(4-chlorothiophen-3-yl)-2-(1,4-diazepan-1-yl)pyrrolo[2,1-f][1,2,4]triazine-7-carboxamide trifluoroacetate]"
13,45,"Cn1cc(NC(=O)c2ccc3cnc(N4C[C@@H]5CNC[C@H]4C5)nn23)c(C(F)(F)F)n1 (single isomer, unassigned) [Example 116, 2-[(1S,5R)- or (1R,5S)-3,6-diazabicyclo[3.2.1]oct-6-yl]-N-[1-methyl-3-(trifluoromethyl)-1H-pyrazol-4-yl]pyrrolo[2,1-f][1,2,4]triazine-7-carboxamide]"
14,866,"O=C(Nc1ccsc1Cl)c1ccc2cnc(N3CCCNCC3)nn12 [Example 31, N-(2-chlorothiophen-3-yl)-2-(1,4-diazepan-1-yl)pyrrolo[2,1-f][1,2,4]triazine-7-carboxamide trifluoroacetate]"
15,0.5,"Cn1cc(NC(=O)c2ccc3cnc(N[C@@H]4CCCC[C@@H]4N)nn23)c(C(F)F)n1 [Example 1, 2-{[(1R,2S)-2-Aminocyclohexyl]amino}-N-[3-(difluoromethyl)-1-methyl-1H-pyrazol-4-yl]pyrrolo[2,1-f][1,2,4]triazine-7-carboxamide]"
16,2,"Cn1cc(NC(=O)c2ccc3cnc(N4CCNCC5(CC5)C4)nn23)c(C(F)F)n1 [Example 20, 2-(5,8-diazaspiro[2.6]non-5-yl)-N-[3-(difluoromethyl)-1-methyl-1H-pyrazol-4-yl]pyrrolo[2,1-f][1,2,4]triazine-7-carboxamide trifluoroacetate]"
17,1960,"O=C(Nc1ccccc1Br)c1ccc2cnc(N3C[C@H]4CC[C@@H]3CN4)nn12 (single isomer, unassigned) [Example 77, N-(2-bromophenyl)-2-[(1S,4S)- or (1R,4R)-2,5-diazabicyclo[2.2.2]oct-2-yl]pyrrolo[2,1-f][1,2,4]triazine-7-carboxamide trifluoroacetate]"
18,9,"Cn1cc(NC(=O)c2ccc3cnc(N[C@H]4CNC[C@@H](F)C4)nn23)c(C(F)(F)F)n1 [Example 160, 2-{[(3R,5S)-5-fluoropiperidin-3-yl]amino}-N-[1-methyl-3-(trifluoromethyl)-1H-pyrazol-4-yl]pyrrolo[2,1-f][1,2,4]triazine-7-carboxamide]"
19,4,"Cn1cc(NC(=O)c2ccc3cnc(N[C@@H]4CNC[C@@H](F)C4)nn23)c(C(F)(F)F)n1 [Example 161, 2-{[(3S,5S)-5-fluoropiperidin-3-yl]amino}-N-[1-methyl-3-(trifluoromethyl)-1H-pyrazol-4-yl]pyrrolo[2,1-f][1,2,4]triazine-7-carboxamide trifluoroacetate]"
20,3650,"Cn1cc(NC(=O)c2ccc3cnc(N[C@H]4CCC(F)(F)C[C@H]4N)nn23)c(C(F)F)n1 (single isomer, unassigned) [Example 129, 2-{[(1S,2R)- or (1R,2S)-2-amino-4,4-difluorocyclohexyl]amino}-N-[3-(difluoromethyl)-1-methyl-1H-pyrazol-4-yl]pyrrolo[2,1-f][1,2,4]triazine-7-carboxamide]"
21,0.7,"Cn1cc(NC(=O)c2ccc3cnc(N4C[C@H](N)C[C@H](F)C4)nn23)c(C(F)F)n1 [Example 163, 2-[(3R,5S)-3-amino-5-fluoropiperidin-1-yl]-N-[3-(difluoromethyl)-1-methyl-1H-pyrazol-4-yl]pyrrolo[2,1-f][1,2,4]triazine-7-carboxamide trifluoroacetate]"
22,4,"Cn1cc(NC(=O)c2ccc3cnc(N[C@@H]4CC(F)(F)CC[C@@H]4N)nn23)c(C(F)(F)F)n1 (single isomer, unassigned) [Example 131, 2-{[(1S,2R)- or (1R,2S)-2-amino-5,5-difluorocyclohexyl]amino}-N-[1-methyl-3-(trifluoromethyl)-1H-pyrazol-4-yl]pyrrolo[2,1-f][1,2,4]triazine-7-carboxamide trifluoroacetate]"
23,0.8,"Cn1cc(NC(=O)c2ccc3cnc(N4C[C@@H](N)C[C@H](F)C4)nn23)c(C(F)F)n1 [Example 157, 2-[(3S,5S)-3-amino-5-fluoropiperidin-1-yl]-N-[3-(difluoromethyl)-1-methyl-1H-pyrazol-4-yl]pyrrolo[2,1-f][1,2,4]triazine-7-carboxamide trifluoroacetate]"
24,3,"N#Cc1cscc1NC(=O)c1ccc2cnc(N[C@@H]3CCCNC3)nn12 [Example 145, N-(4-cyanothiophen-3-yl)-2-[(3R)-piperidin-3-ylamino]pyrrolo[2,1-f][1,2,4]triazine-7-carboxamide trifluoroacetate]"
25,373,"Cn1cc(NC(=O)c2ccc3cnc(N[C@@H]4CCCC(F)(F)[C@@H]4N)nn23)c(Br)n1 [Example 89, 2-{[(1R,2R)-2-amino-3,3-difluorocyclohexyl]amino}-N-(3-bromo-1-methyl-1H-pyrazol-4-yl)pyrrolo[2,1-f][1,2,4]triazine-7-carboxamide trifluoroacetate]"
26,2,"Cn1cc(NC(=O)c2ccc3cnc(N[C@@H]4CCCC[C@@H]4N)nn23)c(C(F)(F)F)n1 [Example 2, 2-{[(1R,2S)-2-aminocyclohexyl]amino}-N-[1-methyl-3-(trifluoromethyl)-1H-pyrazol-4-yl]pyrrolo[2,1-f][1,2,4]triazine-7-carboxamide trifluoroacetate]"
27,1910,"N#Cc1ccccc1NC(=O)c1ccc2cnc(N3CCNCC3)nn12 [Example 58, N-(2-cyanophenyl)-2-piperazin-1-ylpyrrolo[2,1-f][1,2,4]triazine-7-carboxamide trifluoroacetate]"
